In paper PMC8244865, “Recruitment of phospholipase Cγ1 to the non-structural membrane protein pK15 of Kaposi Sarcoma-associated herpesvirus promotes its Src-dependent phosphorylation” (PLoS Pathogens, 2021):

Tests used:
[1] = test system: PLCγ1 tSH2 domain (Src-mediated phosphorylation, Y^783); assay: in vitro Src kinase assay, PLCγ1 tSH2 Y783 phosphorylation; assay type: biochemical; details: 0.6 μM tSH2, 0.085 μM Src, 1.25–5 μM peptide or fixed 5.0 μM, 37°C, 1 hour or 45 min (method), pY783 Western blot
Description: Fig 7 The pK15 CT domain enhances Src-mediated phosphorylation of the PLCγ1 tSH2 domain. (A) The purified PLCγ1 tSH2 domain (0.6 μM) was incubated with limiting amounts (0.085 μM) of recombinant purified Src kinase expressed in insect cells in the presence of increasing concentrations (1.25–5 μM) of phosphorylated peptides representing the last 12 (pK15 12mer) or 35 (pK15 35mer) amino acids of the pK15 cytoplasmic domain for 1 hour at 37°C. The reaction was stopped using SDS sample buffer and analysed by SDS-PAGE and Western blot using an antibody to the PLCγ1 pY^783 residue (top panel) or to the His tag on the recombinant tSH2 domain (bottom panel). (B) Same as above, except that a fixed concentration (5.0 μM) of the 12mer peptide, the 35mer peptide or the pK15 truncation construct GST-pK15 CT^N2 [51] were used. The increased phosphorylation of the tSH2 domain in the presence of the 35mer peptide and pK15 CT^N2 can be seen. (C) Increasing concentrations of the phosphorylated pK15 12mer peptide were used to inhibit the increased src-mediated phosphorylation of tSH2 induced by 2.5 μM of the pK15 35mer peptide. Experimental conditions were as in panel A.
To test the impact of a pK15 CT fragment (pK15 CT^N2) or phosphorylated pK15 peptides representing the last 12 (DDLp[…]) or 35 ([…]pYEEVLFRN) amino acids of pK15 CT on the Src-mediated phosphorylation of the PLCγ1 tSH2 domain, GST-pK15CT^N2 was first phosphorylated with Src in vitro as described in the preceding paragraph. Phosphorylated GST-pK15 CT^N2 or the phosphorylated pK15 peptides, suspended in 50 mM Tris pH7.4, 300 mM NaCl, 1 mM DTT, were then added to the purified recombinant tSH2 domain (0.6 μM) together with a limiting amount of recombinant Src kinase (0.085 μM) in kinase buffer (20 mM Tris pH7.4, 20 mM NaCl, 1 mM DTT, 10 mM MgCl2, 0.2 mM ATP, 0.5 mM Sodium orthovanadate, 0.5 mM β-glycerophosphate) and the reaction allowed to proceed for 45 min. The reaction mix was then analysed by Western blot using an antibody to the phosphorylated Y^783 in the linker region of the PLCγ1 tSH2 domain and an antibody to the 5x His tag. To test the inhibitory effect of the phosphorylated 12mer pK15 peptide on the enhancement of PLCγ1 tSH2 domain phosphorylation induced by the pK15 35mer peptide, increasing concentrations (1.25–5.0 μM) of the 12mer peptide were added to a reaction mix containing the purified recombinant tSH2 domain (2.5 μM), the phosphorylated pK15 35mer (2.5 μM), and recombinant Src kinase (0.085 μM). Following a 45 min incubation at 37°C, the reaction mixture was analysed by Western blot as above.

Src kinase = assay: in vitro phosphorylation of pK15 CT by Src; assay type: biochemical; details: human GST-6xHis Src or chicken 2xStrep Src
Description: We expressed and purified the pK15 cytoplasmic tail (pK15 CT) fused to GST at its N-terminal end in bacteria and phosphorylated it in vitro using a commercially obtained human GST-6xHis Src, or a recombinant chicken 2xStrep Src kinase expressed in insect cells. In parallel, the GST-pK15 CT domain carrying the Y^481F mutation, or GST protein alone, were subjected to the same procedure. […] Following in vitro phosphorylation, pK15 CT^WT and pK15 CT^Y481F were used to pull down transiently expressed (Fig 2A) or endogenous (Fig 2B) PLCγ1 from HEK 293 lysates.
The GST-fused cytoplasmic tail of pK15 (GST-pK15 CT) was in vitro phosphorylated by recombinant human GST-6xHis Src kinase (ActiveMotif, 0.4 μg/ml per kinase reaction, 10 minutes at 30°C), or a recombinant chicken 2xStrep-Src kinase (10 μg/ml per kinase reaction, 30 minutes at 25°C). GST-pK15 CT was used at 4.8 μM or 6 μM and 50 μl or 100 μl reaction volumes for AlphaLISA and 3–6 μl glutathione beads with K15 and 25 μl reaction volume for GST pulldown experiments. […]
Supplementary file ppat.1009635.s001.tif: S1 Fig Both pK15 Y^431 and Y^481 are phosphorylated by recombinant Src kinase. […] Proteins were then analysed by WB using an antibody to pTyr. […]

Molecule: DDLpYEEVLFPRN [pK15 12mer, phosphorylated peptide representing the last 12 amino acids of pK15 CT (DDLp…)]
- effect on Src-mediated phosphorylation of PLCγ1 tSH2 ([1]; listed as 12mer pK15 peptide): moderate inhibition
- effect on Src-mediated phosphorylation of PLCγ1 tSH2 ([1]; listed as 12mer peptide): cannot enhance the Src-mediated phosphorylation of PLCγ1

B1: pK15 CT^WT: pK15 cytoplasmic tail fused to GST at its N-terminal end, phosphorylated in vitro by Src (protein)
chain: SQLLNEVELQEVNRDPPNVFGYASILVSGAEESREPSPQPDQSGMSILRVDGGSAFRIDTAQAATQPTDDLYEEVLFPRN
modifications: tyrosine-phosphorylated in vitro by Src; sites not stated for this construct; left off: GST, N-terminal, kept
- pK15 bands detected after Src phosphorylation (pTyr Western blot) (Src kinase): a dominant (bottom) and a minor (top) pK15 band
- effect on Src-mediated phosphorylation of PLCγ1 tSH2 [1]: enhanced the Src-mediated phosphorylation of the PLCγ1 tSH2 domain
